We go through two compounds from publication PMC6276119 (Biochemistry, 2016).

For the experiment, the target named is AtHCT (Arabidopsis thaliana, UniProt Q9FI78). In words: X-ray crystal structure. Type of experiment: binding.

Molecules are shown by their SMILES.

AtHCT, sequence (Q9FI78 whole entry): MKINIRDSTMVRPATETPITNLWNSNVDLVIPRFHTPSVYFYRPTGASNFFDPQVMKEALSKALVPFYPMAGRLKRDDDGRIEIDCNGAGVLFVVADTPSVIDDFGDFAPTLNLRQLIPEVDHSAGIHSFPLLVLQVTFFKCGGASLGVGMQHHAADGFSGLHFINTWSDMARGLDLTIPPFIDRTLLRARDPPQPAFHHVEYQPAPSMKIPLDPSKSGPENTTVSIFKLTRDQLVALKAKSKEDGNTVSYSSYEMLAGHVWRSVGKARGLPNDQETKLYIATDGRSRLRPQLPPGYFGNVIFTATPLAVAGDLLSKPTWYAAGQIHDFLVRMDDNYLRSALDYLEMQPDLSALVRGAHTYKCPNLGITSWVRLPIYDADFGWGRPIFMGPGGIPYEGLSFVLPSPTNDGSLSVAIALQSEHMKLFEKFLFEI

For `O=C(/C=C/c1ccc(O)cc1)O[C@@H]1CC(C(=O)O)=C[C@@H](O)[C@H]1O` [p-coumaroylshikimate], the “X-ray crystal structure (soaked crystal)” value (acyl acceptor site, soaked with p-coumaroylshikimate in DMSO) was “apo-, p-coumaroyl CoA-bound, and p-coumaroyl shikimate-bound AtHCT”.

As to `CC(C)(COP(=O)(O)OP(=O)(O)OC[C@H]1O[C@@H](n2cnc3c(N)ncnc32)[C@H](O)[C@@H]1OP(=O)(O)O)[C@@H](O)C(=O)NCCC(=O)NCCSC(=O)/C=C/c1ccc(O)cc1` [p-coumaroyl CoA], the “X-ray crystal structure (soaked crystal)” value (soaked with p-coumaroyl CoA in water) was “apo-, p-coumaroyl CoA-bound, and p-coumaroyl shikimate-bound AtHCT”.
